In patent US7423020B2, “Treatment of mood disorders by administration of SMR1” (Institut Pasteur, priority 2001, dated 2008):

Legend:
NEP [1] = target: T1, NEP (Rattus norvegicus, UniProt P07861); experiment: 3H-Substance P hydrolysis by rat spinal cord slices; assay type: biochemical; settings: 25° C., over 30 min incubation, read-out: inhibition of Substance P degradation
T1 construct: incubations of membrane and fresh tissue slice preparations from nervous tissues; from tissue; host or cells: rat spinal cord (dorsal zone), fresh slices or 100 000 x g membrane fraction
T1 sequence (P07861 1-750): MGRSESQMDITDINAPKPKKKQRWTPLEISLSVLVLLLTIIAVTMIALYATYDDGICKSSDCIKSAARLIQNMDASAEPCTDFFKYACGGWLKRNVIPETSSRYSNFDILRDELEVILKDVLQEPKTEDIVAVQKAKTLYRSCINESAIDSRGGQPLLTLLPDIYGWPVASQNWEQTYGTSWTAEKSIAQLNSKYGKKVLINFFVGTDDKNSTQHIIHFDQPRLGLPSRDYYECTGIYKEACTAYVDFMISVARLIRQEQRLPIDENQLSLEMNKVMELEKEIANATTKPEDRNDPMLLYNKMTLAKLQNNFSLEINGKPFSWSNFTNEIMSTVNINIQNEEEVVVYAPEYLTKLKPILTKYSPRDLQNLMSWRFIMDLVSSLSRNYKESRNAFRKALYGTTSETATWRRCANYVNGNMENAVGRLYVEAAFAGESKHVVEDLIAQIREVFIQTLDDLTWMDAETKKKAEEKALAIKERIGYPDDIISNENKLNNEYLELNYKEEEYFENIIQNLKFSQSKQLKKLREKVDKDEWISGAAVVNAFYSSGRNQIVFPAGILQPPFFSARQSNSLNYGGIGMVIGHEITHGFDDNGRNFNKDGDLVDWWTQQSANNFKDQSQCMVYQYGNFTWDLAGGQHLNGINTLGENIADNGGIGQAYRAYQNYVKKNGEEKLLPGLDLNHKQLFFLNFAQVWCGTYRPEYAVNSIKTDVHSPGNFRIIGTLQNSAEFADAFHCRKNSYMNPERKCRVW
Description: (§1) For the experiments of analysis of the NEP peptidase activity, an ex vivo model using incubations of membrane and fresh tissue slice preparations from nervous tissues that are known to be appropriate for exploring NEP peptidase activity: i.e. the dorsal zone of rat spinal cord, was first developed. […] (NEN, 12.5-25 nM) were used.
(§2) The objective was to measure the NEP-specific endoproteolysis of these substrates.
The C-18 Sep-Pak cartridges (Waters) were used to analyze the hydrolysis of the radiolabeled peptides: they separate compounds according to their differences in polarity. This solid-phase extraction procedure allows isolating the substrate from its metabolites, since the hydrophobic character of the peptide metabolites is reduced or even lost compared to the intact peptide substrate.
The radioactivity of eluted and isolated compounds is determined by liquid scintillation spectrometry.

NEP [2] = target: T1, NEP; experiment: Met-enkephalin hydrolysis by rat spinal cord slices and membrane preparations, RP-HPLC analysis; assay type: biochemical; settings: for inhibition of enkephalinase activity over the time of incubation: 37° C., from 10 to 30 min, 10 μM Phosphoramidon, 1 μM Thiorphan
Description: The organs are rapidly removed, dissected on ice, freed of nerve fibers and of adipose tissues and then washed in cold oxygenated glucose-and bicarbonate-containing Krebs Ringer (KRBG) solution, whose composition is the following: 120 mM NaCl-5 mM KCl-1.2 mM KH2PO4-27.5 mM NaHCO3-2.6 mM CaCl2-0.67 mM MgSO4-5.9 mM glucose. The slices of tissues are prepared either manually with the aid of a scalpel (1-2 mm thick), or mechanically with the aid of a “Tissue Chopper” (1 mm thick). Slices are then dispersed into reaction tubes where they are subjected to three successive washes in ice-cold oxygenated KRBG. […] The organs dissected out and washed in ice-cold KRBG are homogenized at 4° C. in 10 volumes (vol./wt.) of 50 mM Tris/HCl buffered at pH 7.2, using a Teflon-glass homogenizer (3×5 sec.). A first centrifugation of 5 min. at 1000×g and 4° C. makes it possible to remove the tissular debris and the nuclei in the pellet. A second centrifugation of the supernatant at 100 000×g and 5° C. concentrates the membrane fraction into the pellet, which will be superficially washed three times with cold Tris/HCl buffer and resuspended in fresh buffer using a Kontes homogenizer, aliquoted and stored at -80° C. while waiting to be used as enzyme source, at least until three months. For the experiments of analysis of the NEP peptidase activity, an ex vivo model using incubations of membrane and fresh tissue slice preparations from nervous tissues that are known to be appropriate for exploring NEP peptidase activity: i.e. the dorsal zone of rat spinal cord, was first developed. The metabolism rate of the NEP-sensitive peptides was measured using the both NEP substrates involved in the signaling of the nociceptive response: the neuropeptides Met-enkephalin and Substance P. […] (NEN, 12.5-25 nM) were used. The objective was to measure the NEP-specific endoproteolysis of these substrates. […] Furthermore, for studying the functional role of […] NO: 1), the reaction was carried out in the presence of the SMR1-peptide alone or combined with specific inhibitors of membrane peptidases which could inactivate the […] NO: 1) peptide by cleaving its C-terminal end: an inhibitor of carboxypeptidase […], 10 μM, Sigma) and an inhibitor of dipeptidylpeptidase IV (DPPIV inhibitor, 10 μM, Roche). […] Samples are kept at -30° C. until the measurement of their intact substrate and its metabolites content. The membrane preparations are preincubated in 50 mM Tris/HCl buffered at pH 7.2 and containing 10 μM Bestatin, at 25, 30 or 37° C. in constantly shaken water, in the presence or in the absence of NEP inhibitor. […] Samples are kept at -30° C. until the measurement of their intact substrate and its metabolites content. HPLC is a highly resolutive procedure that allows one to isolate, and detect by coupled spectrophotometer analysis, the non-radioactive peptides whose concentration is at least 1 to 10 μM. The C-18 RP-HPLC is based on the same principle as the C-18 Sep-Pak cartridge. The chromatographic analyses were used to study the hydrolysis of Met-Enkephalin, that were done on a C-18 LUNA analytical column (150×4.6 mm inner diameter, AIT) packed with 5 μm-diameter beads. […] Their identification and relative quantification (peak height) are checked by continuously monitoring the UV absorbance at 254 nm of column outflow. In first series of experiment, the slices and the membrane preparations of spinal cord tissues were incubated at 30° C. in a 1 ml final volume of KRBG, and at 37° C. in a 0.25 ml final volume of Tris/HCl 50 mM, pH 7.2, respectively.

NEP [3] = target: T1, NEP; experiment: Met-enkephalin degradation by rat spinal cord slices, RIA assay; assay type: biochemical; settings: 10 μM; fresh spinal cord slices; 20 min at 25° C.; 10 μM Met-enkephalin
Description: as §1, §2

male Wistar/AF EOPS rats [4] = experiment: Behavioral despair test (forced swimming); assay type: in vivo, rat; settings: first 5 minutes, n = 10
male Wistar/AF EOPS rats [5] = experiment: Behavioral despair test (forced swimming); assay type: in vivo, rat
Description: Forty male Wistar/AF EOPS rats (Iffa-Credo Breeding Centre, 69-St-Germain sur l'Arbresle, France), weighing 300 to 320 g, were used. On arrival, the rats were labelled and distributed randomly in pairs into type F polycarbonate cages (48×27×20 cm, U.A.R., 91-Epinay-Sur-Orge, France). The animals were stabled in an air-conditioned animal house, at a temperature of 22-24° C. The rats were given food (M25 croquettes, Ets Pietrement, 77-Provins, France) and drink ad libitum and were subjected to a 12-hour light-darkness cycle.
After one week of familiarization with the laboratory conditions, the rats were weighed and distributed randomly into 3 treatment groups (n=12). The rats of the different groups will all be handled in the same way and under the same conditions.
The behavioral despair test takes place over two sessions: • a 15-minute test session; • a 5-minute retest session, performed 24 hours later.
During the test session, the rat was subjected to forced swimming in a Plexiglas cylinder (20 cm in diameter and 50 cm in height, containing 25 cm of water at 25° C.) and its behavior was recorded over 15 minutes. At the end of the test, the rat was removed from the water, dried gently, treated and then returned to its dwelling cage.
During the retest, 24 hours later, the rat was again placed in the water and its behavior was recorded over 5 minutes.
The recorded variables are the period of immobility during the first 5 minutes of both the test and the retest.
The peptide FG-005 (SMR1-QHNPR) (SEQ ID NO: 1) was suspended at a rate of 500 μg per 5 ml of 0.01N acetic acid, and then diluted with PBS to be administered at doses of 50 and 100 μg/kg via the i.v. route into the dorsal caudal vein of the rat, immediately after the test and 300 and 5 minutes before the retest the following day.
A bilateral probability paired t test was used to compare the two periods of immobility of the test with those of the retest in each of the groups. The results are expressed as an average ±standard error of mean (SEM)(FIG. 4). The statistical and graphical processing was performed using Statview5 and DeltaGraph® Pro 3.5 software.

inhibition at 10 µM (NEP [1]) | inhibition at 10 µM (NEP [2]; 10 μM, membrane preparations and fresh tissue slices, 10 min incubation at 37° C., read-out: inhibition of Met-enkephalin hydrolysis (enkephalinase activity)) | inhibition of Met-enkephalin degradation (RP-HPLC) (NEP [2]; 10 μM, spinal cord slices, 20 min at 25° C., Met-enkephalin 10 μM) | inhibition of enkephalinase activity over the time of incubation (NEP [2]) | protection of Met-enkephalin from degradation (RIA) (NEP [3]) | inhibition at 1 µM (NEP [2]; 1 μM, membrane preparations and fresh tissue slices, 10 min incubation at 37° C., read-out: inhibition of Met-enkephalin hydrolysis (enkephalinase activity)) | inhibition at 10 µM (NEP [2]; 10 μM, spinal cord slices, 20 min at 25° C., Met-enkephalin 10 μM, read-out: inhibition of Met-enkephalin degradation (RP-HPLC)) | SMILES | Immobility period, Retest (male Wistar/AF EOPS rats [4]; 0.5 mg/kg i.p., 1440, 300, 30 min before the retest) | Immobility period, Test (male Wistar/AF EOPS rats [4]; 8-OH-DPAT group, 0.5 mg/kg i.p., test session before any treatment) | change of period of immobility, retest compared with test (male Wistar/AF EOPS rats [5]; 8-OH-DPAT treated rats) | overall effect in the behavioral despair test (male Wistar/AF EOPS rats [5]; FG-005 50 and 100 μg/kg i.v., 8-OH-DPAT as reference substance)
60 to 65% | 80 to 90% | complete inhibition | almost complete inhibition | 96% |  |  | CC(C)C[C@H](NP(=O)(O)O[C@@H]1O[C@@H](C)[C@H](O)[C@@H](O)[C@H]1O)C(=O)N[C@@H](Cc1c[nH]c2ccccc12)C(=O)O [Phosphoramidon] |  |  |  | 
60 to 65% |  |  | almost complete inhibition | 100% | 80 to 90% | 80% | O=C(O)CNC(=O)C(CS)Cc1ccccc1 (centres unmarked) [Thiorphan] |  |  |  | 
 |  |  |  |  |  |  | CCCN(CCC)C1CCc2cccc(O)c2C1 (centres unmarked) [8-OH-DPAT, reference compound] | 31.60 ± 11.51 | 109.20 ± 11.43 | significantly reduce their period of immobility | significant anti-resignation effect
